Test results taken from patent US20170152263A1, “Substituted Indazole Compounds as IRAK4 Inhibitors” (AURIGENE DISCOVERY TECHNOLOGIES LIMITED, priority 2014, published 2017).
Structures can show the parent of a compound that is named as a salt.

Molecular target: T1, recombinant IRAK-4 kinase (Homo sapiens, UniProt Q9NWZ3)
T1 construct: purchased Millipore, USA
T1 sequence (Q9NWZ3 1-460): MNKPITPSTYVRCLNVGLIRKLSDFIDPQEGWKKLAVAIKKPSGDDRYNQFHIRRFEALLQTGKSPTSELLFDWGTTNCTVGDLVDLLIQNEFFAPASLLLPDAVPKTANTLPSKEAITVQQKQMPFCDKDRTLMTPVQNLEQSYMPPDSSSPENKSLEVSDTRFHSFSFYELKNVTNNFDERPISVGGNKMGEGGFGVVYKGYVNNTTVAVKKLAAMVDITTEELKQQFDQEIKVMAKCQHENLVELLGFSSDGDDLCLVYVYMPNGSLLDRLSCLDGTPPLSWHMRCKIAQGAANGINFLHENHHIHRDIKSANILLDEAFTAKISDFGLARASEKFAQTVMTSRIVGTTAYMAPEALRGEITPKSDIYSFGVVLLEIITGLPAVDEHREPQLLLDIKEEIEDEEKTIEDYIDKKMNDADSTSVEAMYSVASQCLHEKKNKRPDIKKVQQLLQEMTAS
Experiment: IRAK-4 biochemical assay (TR-FRET)
Conditions: IRAK-4 enzyme, 20 μM ATP; for inhibition at 0.1 µM: compound at 0.1 μM; for inhibition at 1 µM: compound at 1 μM
Experimental: Compounds were tested for their potential to inhibit IRAK-4 enzyme in a TR-FRET assay using recombinant IRAK-4 kinase from Millipore, USA. The assay buffer was 50 mM Tris-HCl pH 7.5, 20 mM MgCl2, 1 mM EGTA, 2 mM DTT, 3 mM MnCl2 and 0.01% Tween 20.5 ng of IRAK-4 kinase was used for the assay. After pre-incubation of enzyme with test compound for 30 minutes at room temperature, a substrate mixture containing 100 nM Biotin Histone H3 (Millipore, USA) and 20 μM ATP (Sigma, USA) was added and the reaction was incubated for 30 min. Post incubation, the reaction was stopped by the addition of stop mix containing 40 mM EDTA, 1 nM of Europium-Anti-Phospho-Histone H3 (Ser10) antibody (Perkin Elmer, USA) and 20 nM SureLight Allophycocyanin-Streptavidin (Perkin Elmer, USA). The fluorescence emission at 615 nm and 665 nm were measured at an excitation of 340 nm and the percent inhibition was estimated from the ratio of the fluorescence intensities [(F665/F615)×10000]. […] The IC50 values were estimated by fitting the dose-response data to sigmoidal dose response (variable slope), curve fitting program using Graphpad Prism software Version 6.01.

inhibition at 0.1 µM	inhibition at 1 µM	IC50 (dose response)	Compound
49%	92%	100 to 250 nM	Cc1cc(-c2ncc(C(=O)Nc3cc4c(cnn4C)cc3N3CC[C@H](O)C3)o2)ccn1 [Example 39, (S)—N—(5-(3-hydroxypyrrolidin-1-yl)-1-methyl-1H-indazol-6-yl)-2-(2-methylpyridin-4-yl)oxazole-5-carboxamide]
0%	15%	–	Cc1nn(C)c2cc(NC(=O)c3coc(-c4ccnc(N)c4)n3)c(N3CCC(CO)CC3)cc12 [Example 43, 2-(2-aminopyridin-4-yl)—N—(5-(4-(hydroxymethyl)piperidin-1-yl)-1,3-dimethyl-1H-indazol-6-yl)oxazole-4-carboxamide hydrochloride]
0%	17%	–	Cc1cc(-c2nc(C(=O)Nc3cc4c(cnn4C)cc3N3CC[C@H](O)C3)c(C)o2)ccn1 [Example 41, (S)—N—(5-(3-hydroxypyrrolidin-1-yl)-1-methyl-1H-indazol-6-yl)-5-methyl-2-(2-methylpyridin-4-yl)oxazole-4-carboxamide hydrochloride]
